The text below walks through data of ChEMBL document CHEMBL1146439, “Novel mono-tetrahydrofuran ring acetogenins, from the bark of Annona squamosa, showing cytotoxic selectivities for the human pancreatic carcinoma cell line, PACA-2” (J Nat Prod, 1997).

In brackets after ≈: the same amount, converted by molar mass. Where only a bound is given, the exact number is not on record here.

Data set [1] is described as follows: Toxicity against brine shrimp. Type of data set: organism-based. To be noted: artemia, in vivo.
The test system of another data set is A549. Kind of data set: Cytotoxicity against human A549 cells after 7 days by MTT assay. Type of data set: functional. To be noted: A549, 168 h, read-out: ED50 (the source's name). (Tetrazolium dyes change colour on reduction, which living cells bring about.)
Another data set deals with MCF7. Briefly: Cytotoxicity against human MCF7 cells after 7 days by MTT assay. Type of data set: functional. To be noted: MCF7, 168 h, read-out: ED50 (the source's name).
The subject of a further data set is HT-29. Kind of data set: Cytotoxicity against human HT-29 cells after 7 days by MTT assay. To be noted: HT-29, 168 h, read-out: ED50 (the source's name). It counts as functional.
The subject of another data set is A498. Kind of data set: Cytotoxicity against human A498 cells after 7 days by MTT assay. It counts as functional. To be noted: A498, 168 h, read-out: ED50 (the source's name).
A further data set deals with PC-3. Briefly: Cytotoxicity against human PC3 cells after 7 days by MTT assay. Type of data set: functional. To be noted: PC-3, 168 h, read-out: ED50 (the source's name).
For another data set, the system named is MIA PaCa-2. Kind of data set: Cytotoxicity against human MIAPaCa2 cells after 7 days by MTT assay. It counts as functional. To be noted: for EC50: Homo sapiens, MIA PaCa-2, 168 h, read-out: ED50 (the source's name).

A word on the LC50: it is the concentration that kills 50% of the test population. Lower therefore signals a more lethal substance. The compound `CCCCCCCCCCCC[C@@H](O)[C@H]1CC[C@H]([C@H](O)CCCCCC(=O)CCCC[C@@H](O)CC2=C[C@H](C)OC2=O)O1` returned an LC50 in data set [1] of 0.41 µg/mL (≈ 0.689 µM). Also, the EC50 is 0.27 µg/mL (≈ 0.454 µM) in the data set with A549; greater than 1 µg/mL with MCF7; greater than 1 µg/mL in the data set with HT-29; greater than 1 µg/mL in the data set on A498; 0.0096 µg/mL (≈ 0.0161 µM) in the data set on PC-3. The ED50 in the data set with MIA PaCa-2 turned out to be 2.4 ×10⁻⁴ ug/ml.
`CCCCCCCCC/C=C\CC[C@@H](O)[C@H]1CC[C@H]([C@H](O)CCCCCC(=O)CCCC[C@@H]2CC(CC(C)=O)C(=O)O2)O1` (mixture of isomers) displayed an LC50 in data set [1] of 0.44 µg/mL. Besides, the EC50 in the data set on A549 was greater than 1 µg/mL; in the data set with MCF7, greater than 1 µg/mL; in the data set with HT-29 it was greater than 1 µg/mL; in the data set on A498, greater than 1 µg/mL; with PC-3, 0.032 µg/mL; in the data set on MIA PaCa-2 it was 0.0022 µg/mL.
In data set [1], `COc1cccc2c1C(=O)c1c(O)c3c(c(O)c1C2=O)C[C@@](O)(C(=O)CO)C[C@@H]3O[C@H]1C[C@H](N)[C@H](O)[C@H](C)O1` [DOXORUBICIN] registered an LC50 of 0.26 µg/mL (≈ 0.478 µM). Besides, the EC50 was determined as 0.0053 µg/mL (≈ 0.00975 µM) in the data set on A549; 0.2 µg/mL (≈ 0.368 µM) with MCF7; 0.02 µg/mL (≈ 0.0368 µM) in the data set with HT-29; 0.01 µg/mL (≈ 0.0184 µM) in the data set with A498; 0.032 µg/mL (≈ 0.0589 µM) in the data set with PC-3; 0.018 µg/mL (≈ 0.0331 µM) with MIA PaCa-2.
`CCCCCCCCCCCC[C@H](O)[C@H]1CC[C@H]([C@H](O)CCCCCC(=O)CCCC[C@@H](O)CC2=C[C@H](C)OC2=O)O1` [MOSIN B] registered an LC50 in data set [1] of 0.29 µg/mL (≈ 0.487 µM). The EC50 in the data set with A549 was 0.94 µg/mL (≈ 1.58 µM); with MCF7 it was greater than 1 µg/mL; with HT-29 it was greater than 1 µg/mL; in the data set with A498 it was greater than 1 µg/mL; in the data set with PC-3, 0.35 µg/mL (≈ 0.588 µM). This compound also came in with an ED50 in the data set with MIA PaCa-2 of 2.5 ×10⁻⁴ ug/ml.
For `CCCCCCCCCCCC[C@H](O)[C@@H]1CC[C@H]([C@H](O)CCCCCC(=O)CCCC[C@@H](O)CC2=C[C@H](C)OC2=O)O1` [MOSIN C], the LC50 in data set [1] is 0.15 µg/mL (≈ 0.252 µM). Also, the EC50 in the data set with A549 is 0.6 µg/mL (≈ 1.01 µM); in the data set with MCF7, greater than 1 µg/mL; in the data set with HT-29 it was greater than 1 µg/mL; in the data set on A498, greater than 1 µg/mL; in the data set with PC-3 it was greater than 1 µg/mL. In the data set on MIA PaCa-2, the ED50 was 1.2 ×10⁻⁴ ug/ml.
